What was measured:
[1] = DRUGMATRIX: Calcium Channel Type L, Dihydropyridine radioligand binding (ligand: [3H] Nitrendipine); assay type: cell membranes, Rattus norvegicus, Wistar, Cerebral cortex, Membrane; settings: Not Active = under 50% inhibition at 10 µM
[2] = DRUGMATRIX: GABAA, Muscimol, Central radioligand binding (ligand: [3H] Muscimol); assay type: cell membranes, Rattus norvegicus, Wistar, Brain, Membrane; settings: Not Active = under 50% inhibition at 10 µM
[3] = DRUGMATRIX: Glutamate, Kainate radioligand binding (ligand: [3H] Kainic acid); assay type: cell membranes, Rattus norvegicus, Wistar, Brain, Membrane; settings: Not Active = under 50% inhibition at 10 µM
[4] = target: T1, 3-hydroxy-3-methylglutaryl-coenzyme A reductase (Homo sapiens, UniProt P04035); parameters: species or system Escherichia coli;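 also: enzyme inhibition assay of HMG-CoA reductase using radiolabeled [14C]HMG-CoA as substrate; in other assays of this panel Not Active means under 50% inhibition at 10 µM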
T1 sequence (P04035 whole entry): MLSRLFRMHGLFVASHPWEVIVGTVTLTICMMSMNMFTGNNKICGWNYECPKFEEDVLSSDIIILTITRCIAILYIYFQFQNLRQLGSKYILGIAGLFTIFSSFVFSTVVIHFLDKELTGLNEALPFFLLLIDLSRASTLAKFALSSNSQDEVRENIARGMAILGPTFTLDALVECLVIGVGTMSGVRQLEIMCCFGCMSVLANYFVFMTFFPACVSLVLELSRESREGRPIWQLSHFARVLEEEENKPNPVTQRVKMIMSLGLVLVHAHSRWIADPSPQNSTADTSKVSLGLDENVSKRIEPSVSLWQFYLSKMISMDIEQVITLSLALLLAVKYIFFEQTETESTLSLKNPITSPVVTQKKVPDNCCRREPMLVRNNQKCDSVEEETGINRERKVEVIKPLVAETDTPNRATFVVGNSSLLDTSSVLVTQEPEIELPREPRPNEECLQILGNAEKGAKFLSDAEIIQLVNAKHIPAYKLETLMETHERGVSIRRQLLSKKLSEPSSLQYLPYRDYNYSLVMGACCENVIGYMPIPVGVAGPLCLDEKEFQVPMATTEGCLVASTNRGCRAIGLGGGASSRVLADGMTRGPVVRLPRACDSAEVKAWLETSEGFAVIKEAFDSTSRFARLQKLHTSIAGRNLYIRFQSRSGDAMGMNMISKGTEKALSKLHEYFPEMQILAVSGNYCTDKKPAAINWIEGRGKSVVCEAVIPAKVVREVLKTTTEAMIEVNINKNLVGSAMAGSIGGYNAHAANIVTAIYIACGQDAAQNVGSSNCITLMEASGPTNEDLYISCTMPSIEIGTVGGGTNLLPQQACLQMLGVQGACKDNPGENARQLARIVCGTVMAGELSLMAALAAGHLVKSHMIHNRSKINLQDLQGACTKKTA

Interstitial collagenase = target: T2, Interstitial collagenase (Homo sapiens, UniProt P03956); assay: biochemical; assay type: tissue-based, Rheumatoid synovial fibroblasts;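 also: MMP-1 enzyme inhibition assay using a peptide substrate; in other assays of this panel Not Active means under 50% inhibition at 10 µM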
T2 sequence (P03956 whole entry): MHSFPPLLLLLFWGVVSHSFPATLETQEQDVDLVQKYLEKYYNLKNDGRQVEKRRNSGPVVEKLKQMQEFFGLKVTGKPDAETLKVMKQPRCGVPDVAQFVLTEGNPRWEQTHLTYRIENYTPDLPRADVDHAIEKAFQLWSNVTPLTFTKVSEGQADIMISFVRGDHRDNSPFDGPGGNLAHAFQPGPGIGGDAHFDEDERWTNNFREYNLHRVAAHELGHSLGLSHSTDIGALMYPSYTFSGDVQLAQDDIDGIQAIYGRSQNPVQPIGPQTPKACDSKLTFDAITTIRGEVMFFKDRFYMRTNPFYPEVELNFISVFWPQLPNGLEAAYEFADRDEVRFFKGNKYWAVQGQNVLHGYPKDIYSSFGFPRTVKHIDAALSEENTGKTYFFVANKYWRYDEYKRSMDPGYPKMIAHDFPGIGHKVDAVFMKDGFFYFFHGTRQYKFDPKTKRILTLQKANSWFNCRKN

[5] = target: Receptor tyrosine-protein kinase erbB-2 (Homo sapiens, UniProt P04626); assay: biochemical; assay type: cell-based, Insect cells; settings: insect cells;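 also: inhibition of HER2 kinase enzyme activity, measured with Poly(Glu:Tyr) as the phosphorylation substrate; in other assays of this panel Not Active means under 50% inhibition at 10 µM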
Cytochrome P450 1A2 = target: T3, Cytochrome P450 1A2 (Homo sapiens, UniProt P05177); settings: bti-tn-5b1-4; also: in other assays of this panel Not Active means under 50% inhibition at 10 µM
T3 sequence (P05177 whole entry): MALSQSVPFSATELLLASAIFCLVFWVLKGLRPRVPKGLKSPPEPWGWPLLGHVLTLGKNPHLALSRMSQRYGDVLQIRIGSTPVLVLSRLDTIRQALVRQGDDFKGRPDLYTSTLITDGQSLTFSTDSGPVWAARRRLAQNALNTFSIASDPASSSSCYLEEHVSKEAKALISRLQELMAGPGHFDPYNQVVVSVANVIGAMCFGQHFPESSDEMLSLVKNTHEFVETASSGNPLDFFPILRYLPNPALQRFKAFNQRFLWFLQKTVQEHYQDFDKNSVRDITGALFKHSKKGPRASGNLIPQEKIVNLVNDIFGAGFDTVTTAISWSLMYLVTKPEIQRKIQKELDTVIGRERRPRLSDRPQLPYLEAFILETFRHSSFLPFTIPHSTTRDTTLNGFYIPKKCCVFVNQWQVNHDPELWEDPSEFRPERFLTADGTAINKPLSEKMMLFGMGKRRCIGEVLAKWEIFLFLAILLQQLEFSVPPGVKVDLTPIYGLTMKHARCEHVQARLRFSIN

Estrogen receptor beta = Estrogen receptor beta (Homo sapiens, UniProt Q92731); settings: sf9; also: in other assays of this panel Not Active means under 50% inhibition at 10 µM
Estrogen receptor beta, sequence (Q92731 whole entry): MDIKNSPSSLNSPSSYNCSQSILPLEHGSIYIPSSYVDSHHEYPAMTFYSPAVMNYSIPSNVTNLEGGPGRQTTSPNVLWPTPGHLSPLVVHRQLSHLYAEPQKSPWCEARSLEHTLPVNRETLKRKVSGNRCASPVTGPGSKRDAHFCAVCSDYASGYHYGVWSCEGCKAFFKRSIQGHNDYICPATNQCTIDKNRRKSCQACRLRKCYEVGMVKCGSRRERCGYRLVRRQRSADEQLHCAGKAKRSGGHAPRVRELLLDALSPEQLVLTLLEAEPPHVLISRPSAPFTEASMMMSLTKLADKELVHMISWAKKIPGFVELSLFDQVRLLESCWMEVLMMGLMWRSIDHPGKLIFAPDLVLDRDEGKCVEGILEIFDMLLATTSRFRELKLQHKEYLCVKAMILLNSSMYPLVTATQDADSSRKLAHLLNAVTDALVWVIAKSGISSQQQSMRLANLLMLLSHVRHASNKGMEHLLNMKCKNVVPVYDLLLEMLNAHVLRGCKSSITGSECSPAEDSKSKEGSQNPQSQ

CC(=O)[C@H]1[C@H](C#N)C[C@H]2[C@@H]3CC=C4C[C@@H](O)CC[C@]4(C)[C@H]3CC[C@@]21C [PREGNENOLONE CARBONITRILE]
Not Active: IC50 [1] | Ki [1] | IC50 [2] | Ki [2] | IC50 [3] | Ki [3] | IC50 [4] | IC50 (Interstitial collagenase) | IC50 [5] | IC50 (Cytochrome P450 1A2) | Ki (Cytochrome P450 1A2) | IC50 (Estrogen receptor beta)

CCCN(CCC)S(=O)(=O)c1ccc(C(=O)O)cc1 [PROBENECID]
Not Active: IC50 [1] | Ki [1] | IC50 [2] | Ki [2] | IC50 [3] | Ki [3] | IC50 [4] | IC50 (Interstitial collagenase) | IC50 [5] | IC50 (Cytochrome P450 1A2) | Ki (Cytochrome P450 1A2) | IC50 (Estrogen receptor beta)

CCCOc1ccc(C(=O)OCCN(CC)CC)cc1N [PROPARACAINE]
Not Active: IC50 [1] | Ki [1] | IC50 [2] | Ki [2] | IC50 [3] | Ki [3] | IC50 [4] | IC50 (Interstitial collagenase) | IC50 [5] | IC50 (Cytochrome P450 1A2) | Ki (Cytochrome P450 1A2) | IC50 (Estrogen receptor beta)

C[C@@H]1O[C@@H](O[C@@H]2C=C3CC[C@@H]4[C@H](CC[C@]5(C)[C@@H](c6ccc(=O)oc6)CC[C@]45O)[C@@]3(C)CC2)[C@H](O)[C@H](O)[C@H]1O [PROSCILLARIDIN]
Not Active: IC50 [1] | Ki [1] | IC50 [2] | Ki [2] | IC50 [3] | Ki [3] | IC50 [4] | IC50 (Interstitial collagenase) | IC50 [5] | IC50 (Cytochrome P450 1A2) | Ki (Cytochrome P450 1A2) | IC50 (Estrogen receptor beta)

Oc1cccc(O)c1O [PYROGALLOL]
Not Active: IC50 [1] | Ki [1] | IC50 [2] | Ki [2] | IC50 [3] | Ki [3] | IC50 [4] | IC50 (Interstitial collagenase) | IC50 [5] | IC50 (Cytochrome P450 1A2) | Ki (Cytochrome P450 1A2) | IC50 (Estrogen receptor beta)

AURANOFIN
Not Active: IC50 [1] | Ki [1] | IC50 [2] | Ki [2] | IC50 [3] | Ki [3] | IC50 [4] | Ki [4] | IC50 (Interstitial collagenase) | Ki (Interstitial collagenase) | IC50 [5] | Ki [5] | IC50 (Cytochrome P450 1A2) | Ki (Cytochrome P450 1A2) | IC50 (Estrogen receptor beta) | Ki (Estrogen receptor beta)

GADOPENTETATE DIMEGLUMINE
Not Active: IC50 [1] | Ki [1] | IC50 [2] | Ki [2] | IC50 [3] | Ki [3] | IC50 [4] | Ki [4] | IC50 (Interstitial collagenase) | Ki (Interstitial collagenase) | IC50 [5] | Ki [5] | IC50 (Cytochrome P450 1A2) | Ki (Cytochrome P450 1A2) | IC50 (Estrogen receptor beta) | Ki (Estrogen receptor beta)

GENTAMICIN
Not Active: IC50 [1] | Ki [1] | IC50 [2] | Ki [2] | IC50 [3] | Ki [3] | IC50 [4] | Ki [4] | IC50 (Interstitial collagenase) | Ki (Interstitial collagenase) | IC50 [5] | Ki [5] | IC50 (Cytochrome P450 1A2) | Ki (Cytochrome P450 1A2) | IC50 (Estrogen receptor beta) | Ki (Estrogen receptor beta)

GRAMICIDIN
Not Active: IC50 [1] | Ki [1] | IC50 [2] | Ki [2] | IC50 [3] | Ki [3] | IC50 [4] | Ki [4] | IC50 (Interstitial collagenase) | Ki (Interstitial collagenase) | IC50 [5] | Ki [5] | IC50 (Cytochrome P450 1A2) | Ki (Cytochrome P450 1A2) | IC50 (Estrogen receptor beta) | Ki (Estrogen receptor beta)

NYSTATIN
Not Active: IC50 [1] | Ki [1] | IC50 [2] | Ki [2] | IC50 [3] | Ki [3] | IC50 [4] | Ki [4] | IC50 (Interstitial collagenase) | Ki (Interstitial collagenase) | IC50 [5] | Ki [5] | IC50 (Cytochrome P450 1A2) | Ki (Cytochrome P450 1A2) | IC50 (Estrogen receptor beta) | Ki (Estrogen receptor beta)

Source: ChEMBL document CHEMBL1909046, “DrugMatrix in vitro pharmacology data”
